Measured values published in paper PMC6407587, “Inhibition potential of phenolic constituents from the aerial parts of Tetrastigma hemsleyanum against soluble epoxide hydrolase and nitric oxide synthase” (Journal of Enzyme Inhibition and Medicinal Chemistry, 2019).

How the values were obtained:
sEH [1] = target: T1, sEH (Homo sapiens, UniProt P34913); experiment: sEH inhibitory activity, fluorescence assay with PHOME substrate; assay type: biochemical; details: for inhibition at 100 µM / Inhibition on sEH at 100 µM (%): 100 µM compound, tested three times; for IC50: PHOME substrate, dose-dependent response curve
T1 sequence (P34913 1-555): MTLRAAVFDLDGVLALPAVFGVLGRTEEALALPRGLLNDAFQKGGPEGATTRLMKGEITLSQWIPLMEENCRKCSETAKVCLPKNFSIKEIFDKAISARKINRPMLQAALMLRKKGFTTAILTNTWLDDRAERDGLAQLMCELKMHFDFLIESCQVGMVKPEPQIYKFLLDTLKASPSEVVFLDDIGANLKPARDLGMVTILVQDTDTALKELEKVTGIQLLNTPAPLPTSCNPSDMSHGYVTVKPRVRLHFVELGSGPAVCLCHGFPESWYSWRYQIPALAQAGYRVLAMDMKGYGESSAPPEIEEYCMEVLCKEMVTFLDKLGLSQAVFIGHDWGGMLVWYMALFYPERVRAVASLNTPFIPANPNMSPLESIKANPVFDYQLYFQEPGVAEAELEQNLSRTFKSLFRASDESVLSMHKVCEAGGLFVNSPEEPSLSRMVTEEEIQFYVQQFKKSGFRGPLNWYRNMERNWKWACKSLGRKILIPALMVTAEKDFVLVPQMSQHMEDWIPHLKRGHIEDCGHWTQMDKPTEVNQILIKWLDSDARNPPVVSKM

sEH [2] = target: T1, sEH; experiment: sEH binding mechanism, Dixon and Lineweaver-Burk plots at different substrate and inhibitor concentrations; assay type: biochemical; details: for Type of sEH inhibition: Dixon / Lineweaver-Burk plots; for Ki: Dixon plots
[3] = test system: LPS-induced NO production in macrophage RAW 264.7 cells (iNOS); experiment: Inhibition of LPS-induced NO production in RAW 264.7 macrophages (Griess reaction, measure of iNOS activity); assay type: cell-based; details: for IC50 / inhibition at 50 µM: Mus musculus; for IC50: RAW264.7, LPS-stimulated RAW264.7 cells, means ± SE, n = 3; for inhibition at 50 µM / Inhibition of NO production at 50 µM (%): 50 µM compound, LPS-stimulated RAW264.7 cells; for inhibition at 50 µM: read-out: Inhibition of NO production at 50 µM (%);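 for all read-outs here: cells pretreated with compound for 2 h, then stimulated 24 h with LPS at 500 ng/ml, supernatant nitrite quantified by absorbance at 550 nm against a nitrite standard curve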
X-box binding protein 1 = test system: X-box binding protein 1; parameters: method as in PMID 26475664; details: related to ulcerative colitis; cited from earlier work
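Throughout, for Cytotoxicity in RAW 264.7 cells (MTT): viability gauged by mitochondrial reductase turning MTT into formazan, optical density read at 570 nm, with untreated control cells set as 100% viability.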

Row | Structure (SMILES) | inhibition at 100 µM (sEH [1]) | IC50 (sEH [1]) | Type of sEH inhibition (sEH [2]) | Ki (sEH [2]) | IC50 [3] | inhibition at 50 µM [3] | Cytotoxicity in RAW 264.7 cells (MTT) (RAW 264.7 cells) | Inhibition on sEH at 100 µM (%) (sEH [1]) | Inhibition of NO production at 50 µM (%) [3] | sEH inhibitory activity (in words) (sEH [1]) | Transcriptional activation of X-box binding protein 1 (X-box binding protein 1)
1 | O=c1c(O)c(-c2ccc(O)cc2)oc2cc(O)cc(O)c12 [Compound 10, kaempferol] | 58 ± 2% | 6.8 ± 2.4 µM | Non-competitive | 18.6 µM | 15.6 ± 1.6 µM | 93% | did not exhibit significant cytotoxicity | – | – | – | –
2 | O=c1cc(-c2ccc(O)cc2)oc2cc(O)cc(O)c12 [Compound 12, apigenin] | 92.4 ± 2% | 7.2 ± 0.3 µM | Non-competitive | 24.4 µM | 12.2 ± 0.1 µM | 98.9% | did not exhibit significant cytotoxicity | – | – | – | –
3 | C[C@@H]1O[C@@H](OC[C@H]2O[C@@H](Oc3c(-c4ccc(O)c(O)c4)oc4cc(O)cc(O)c4c3=O)[C@H](O)[C@@H](O)[C@@H]2O)[C@H](O)[C@H](O)[C@H]1O [Compound 16] | – | 6.2 ± 0.1 µM | non-competitive | – | – | – | did not exhibit significant cytotoxicity | 95.2 ± 0.2% | 26.2% | – | –
4 | CC(=O)O[C@H]1[C@H](OC[C@H]2O[C@@H](Oc3c(-c4ccc(O)c(O)c4)oc4cc(O)cc(O)c4c3=O)[C@H](O)[C@@H](O)[C@@H]2O)O[C@@H](C)[C@H](O)[C@H]1O [Compound 17] | – | 9.5 ± 0.1 µM | non-competitive | – | – | – | did not exhibit significant cytotoxicity | 83.8 ± 3.7% | 29.9% | – | –
5 | COc1cc(C2c3cc(O)c(OC)cc3CC(CO)C2COC2OC(C)C(O)C(O)C2O)ccc1O (stereo not shown) [Compound 18] | 52.3 ± 2.6% | – | – | – | – | 32.1% | did not exhibit significant cytotoxicity | – | – | weak inhibitory activity | remarkable transcriptional activation
6 | O=c1ccc2cc(O)c(O)cc2o1 [Compound 19] | – | 4.5 ± 0.2 µM | – | 10.2 µM | 47.3 ± 6.9 µM | 50.1% | did not exhibit significant cytotoxicity | – | – | – | –
